The test system of one assay is Jurkat cells. Put plainly: IL-2 secretion assay in CD3/CD28-activated Jurkat cells (AlphaLISA). It is filed as cell-based, human. The following applies: Homo sapiens, CD3/CD28 T Cell Activator, 24 h, IL-2 AlphaLISA. An outline of the steps: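 IL-2 release quantified by AlphaLISA in supernatants after 24 h CD3/CD28 activation at 37° C. Compounds, 10 μM to 300 pM final in 1:2 steps, were added to 50,000 Jurkat cells/well 1 h before activation; 4-parameter fit gave EC50.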

The target of another assay is T1, Cbl-b (Homo sapiens, UniProt Q13191).
T1 construct: biotin (biotinylated)
Put plainly: Cbl-b probe displacement HTRF binding assay. The following applies: 0.4 nM biotinylated Cbl-b, 150 nM BODIPY probe. In short, it runs like this:
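Probe-displacement HTRF in Hepes/NaCl/Triton/TCEP/BSA buffer at room temperature: compound dilutions (to 10 μM) incubated 60 min with 0.4 nM biotin-Cbl-b, 150 nM BODIPY probe added for 15 min, Tb-streptavidin read. Signal normalised to DMSO and no-protein controls; IC50 from four-parameter curve.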

T1 sequence (Q13191 whole entry, species assumed): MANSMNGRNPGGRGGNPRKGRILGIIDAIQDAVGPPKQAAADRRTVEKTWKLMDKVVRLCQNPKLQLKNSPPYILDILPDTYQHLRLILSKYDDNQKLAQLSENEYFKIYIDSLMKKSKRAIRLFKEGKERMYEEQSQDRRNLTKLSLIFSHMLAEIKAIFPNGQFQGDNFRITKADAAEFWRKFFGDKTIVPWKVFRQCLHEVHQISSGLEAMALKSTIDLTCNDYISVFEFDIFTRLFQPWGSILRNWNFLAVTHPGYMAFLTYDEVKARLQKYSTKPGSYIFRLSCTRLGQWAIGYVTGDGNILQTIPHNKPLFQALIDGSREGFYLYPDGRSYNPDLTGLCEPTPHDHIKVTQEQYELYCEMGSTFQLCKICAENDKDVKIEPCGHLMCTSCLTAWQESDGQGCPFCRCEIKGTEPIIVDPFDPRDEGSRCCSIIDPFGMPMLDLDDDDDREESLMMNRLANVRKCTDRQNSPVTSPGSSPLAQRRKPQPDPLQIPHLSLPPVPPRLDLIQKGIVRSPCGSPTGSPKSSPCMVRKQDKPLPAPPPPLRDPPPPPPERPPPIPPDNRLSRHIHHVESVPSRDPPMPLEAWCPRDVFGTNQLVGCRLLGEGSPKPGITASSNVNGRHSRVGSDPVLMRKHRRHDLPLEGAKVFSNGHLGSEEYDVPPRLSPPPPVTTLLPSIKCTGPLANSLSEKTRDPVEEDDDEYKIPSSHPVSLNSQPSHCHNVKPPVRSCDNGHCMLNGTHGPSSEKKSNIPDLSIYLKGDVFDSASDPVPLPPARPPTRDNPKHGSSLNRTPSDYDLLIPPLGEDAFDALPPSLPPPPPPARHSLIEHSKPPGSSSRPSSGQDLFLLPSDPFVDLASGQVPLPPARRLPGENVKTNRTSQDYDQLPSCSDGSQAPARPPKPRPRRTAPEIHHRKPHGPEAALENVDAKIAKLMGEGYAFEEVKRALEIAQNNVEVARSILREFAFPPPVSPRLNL

In the case of `CC(=O)N1CCC[C@H]1c1nc2c(C(F)(F)F)cn(-c3cc(-c4ccc(F)cc4-c4nncn4C)cc(C4CC4)n3)c(=O)c2[nH]1` [Example 45, 2-[(2S)-1-acetylpyrrolidin-2-yl]-5-[6-cyclopropyl-4-[4-fluoro-2-(4-methyl-1,2,4-triazol-3-yl)phenyl]pyridin-2-yl]-7-(trifluoromethyl)-3H-imidazo[4,5-c]pyridin-4-one], the EC50 (usually the concentration that produces a half-maximal response) with Jurkat cells is 0.1 to 1 µM. Besides, the IC50 (in general, the concentration that inhibits the measured activity by half) at Cbl-b is below 0.1 µM.

With `C[C@@H](c1nc2c(C(F)(F)F)cn(-c3cc(-c4ccc(F)cc4-c4nncn4C)cc(C4CC4)n3)c(=O)c2[nH]1)C1CC1` [Example 46, 2-[(1R)-1-cyclopropylethyl]-5-[6-cyclopropyl-4-[4-fluoro-2-(4-methyl-1,2,4-triazol-3-yl)phenyl]pyridin-2-yl]-7-(trifluoromethyl)-3H-imidazo[4,5-c]pyridin-4-one], in the assay with Jurkat cells, the 50% effective concentration (EC50) was below 0.1 µM. This molecule came in with an IC50 on Cbl-b below 0.1 µM.

On to `Cn1cc(C#N)nc1-c1cc(F)ccc1-c1cc(C2CC2)nc(-n2cc(C(F)(F)F)c3nc([C@@H]4CCOC4)[nH]c3c2=O)c1` [Example 47, 2-[2-(2-{2-[(S)-Tetrahydro-3-furyl]-4-oxo-7-(trifluoromethyl)-3,5-dihydro-1,3,5-triaza-5-indenyl}-6-cyclopropyl-4-pyridyl)-5-fluorophenyl]-1-methyl-4-imidazolecarbonitrile], for which, in the assay on Jurkat cells, the EC50 is below 0.1 µM. Further, the IC50 on Cbl-b was below 0.1 µM.

As to `Cn1cc(C#N)nc1-c1cc(F)ccc1-c1cc(C2CC2)nc(-n2cc(C(F)(F)F)c3nc([C@H]4CCOC4)[nH]c3c2=O)c1` [Example 48, 2-[2-(2-{2-[(R)-Tetrahydro-3-furyl]-4-oxo-7-(trifluoromethyl)-3,5-dihydro-1,3,5-triaza-5-indenyl}-6-cyclopropyl-4-pyridyl)-5-fluorophenyl]-1-methyl-4-imidazolecarbonitrile], the EC50 in the assay on Jurkat cells was below 0.1 µM. On Cbl-b, this molecule came in with an IC50 below 0.1 µM.

In the assay with Jurkat cells, `C[C@H]1CCCN(Cc2nc3c(C(F)(F)F)cn(-c4cc(-c5ccc(F)cc5-c5nncn5C)cc(C5CC5)n4)c(=O)c3[nH]2)C1` [Example 50, 5-[6-cyclopropyl-4-[4-fluoro-2-(4-methyl-1,2,4-triazol-3-yl)phenyl]pyridin-2-yl]-2-[[(3S)-3-methylpiperidin-1-yl]methyl]-7-(trifluoromethyl)-3H-imidazo[4,5-c]pyridin-4-one] gave an EC50 below 0.1 µM. Further, the IC50 at Cbl-b is below 0.1 µM.

For `C[C@H]1CCCN(Cc2nc3c(C4CC4)cn(-c4cc(-c5ccc(F)cc5-c5nccn5C)cc(C5CC5)n4)c(=O)c3[nH]2)C1` [Example 51, 7-cyclopropyl-5-[6-cyclopropyl-4-[4-fluoro-2-(1-methylimidazol-2-yl)phenyl]pyridin-2-yl]-2-[[(3S)-3-methylpiperidin-1-yl]methyl]-3H-imidazo[4,5-c]pyridin-4-one], the EC50 with Jurkat cells is below 0.1 µM. The molecule further returned an IC50 at Cbl-b below 0.1 µM.

As to `C[C@H]1CCCN(Cc2cc3c(C4CC4)cn(-c4cc(-c5ccc(F)cc5-c5nccn5C)cc(C5CC5)n4)c(=O)c3[nH]2)C1` [Example 52, 2-{[(S)-3-methyl-1-piperidyl]methyl}-4-cyclopropyl-6-{6-cyclopropyl-4-[4-fluoro-2-(1-methyl-2-imidazolyl)phenyl]-2-pyridyl}-1,6-dihydro-1,6-diaza-7-indenone], in the assay with Jurkat cells, the EC50 was below 0.1 µM. At Cbl-b, the IC50 was below 0.1 µM.

`Cn1ccnc1-c1cc(F)ccc1-c1cc(C2CC2)nc(-n2cc(C3CC3)c3cc(CNC4(CO)CCC4)[nH]c3c2=O)c1` [Example 53, 4-cyclopropyl-6-{6-cyclopropyl-4-[4-fluoro-2-(1-methyl-2-imidazolyl)phenyl]-2-pyridyl}-2-{[1-(hydroxymethyl)cyclobutylamino]methyl}-1,6-dihydro-1,6-diaza-7-indenone] returned an EC50 in the assay on Jurkat cells below 0.1 µM. At Cbl-b, the IC50 was below 0.1 µM.

`C[C@@H]1CN(Cc2cc3c(C4CC4)cn(-c4cc(-c5ccc(F)cc5-c5nccn5C)cc(C5CC5)n4)c(=O)c3[nH]2)CCO1` [Example 54, 2-{[(R)-2-methyl-4-morpholinyl]methyl}-4-cyclopropyl-6-{6-cyclopropyl-4-[4-fluoro-2-(1-methyl-2-imidazolyl)phenyl]-2-pyridyl}-1,6-dihydro-1,6-diaza-7-indenone] displayed an EC50 in the assay on Jurkat cells below 0.1 µM. The same molecule had a half-maximal inhibitory concentration (IC50) on Cbl-b below 0.1 µM.

In the assay with Jurkat cells, `Cn1ccnc1-c1cc(F)ccc1-c1cc(C2CC2)nc(-n2cc(C3CC3)c3cc(CNC4(C)CCC4)[nH]c3c2=O)c1` [Example 55, 4-cyclopropyl-6-{6-cyclopropyl-4-[4-fluoro-2-(1-methyl-2-imidazolyl)phenyl]-2-pyridyl}-2-[(1-methylcyclobutylamino)methyl]-1,6-dihydro-1,6-diaza-7-indenone] displayed an EC50 below 0.1 µM. The molecule also had an IC50 on Cbl-b below 0.1 µM.

`Cn1ccnc1-c1cc(F)ccc1-c1cc(C2CC2)nc(-n2cc(C3CC3)c3cc(CN4C[C@@H]5CC[C@H]4C5)[nH]c3c2=O)c1` [Example 56, 2-({(1S,4R)-2-azabicyclo[2.2.1]hept-2-yl}methyl)-4-cyclopropyl-6-{6-cyclopropyl-4-[4-fluoro-2-(1-methyl-2-imidazolyl)phenyl]-2-pyridyl}-1,6-dihydro-1,6-diaza-7-indenone] showed a concentration giving a half-maximal response (EC50) in the assay on Jurkat cells of 0.1 to 1 µM. Also, the IC50 at Cbl-b was below 0.1 µM.

`Cn1ccnc1-c1cc(F)ccc1-c1cc(C2CC2)nc(-n2cc(C3CC3)c3cc(CN[C@@H]4CCCOC4)[nH]c3c2=O)c1` [Example 57, 2-{[(R)-tetrahydro-2H-pyran-3-ylamino]methyl}-4-cyclopropyl-6-{6-cyclopropyl-4-[4-fluoro-2-(1-methyl-2-imidazolyl)phenyl]-2-pyridyl}-1,6-dihydro-1,6-diaza-7-indenone] yielded an EC50 in the assay with Jurkat cells below 0.1 µM. For the same molecule, the half-maximal inhibitory concentration (IC50) at Cbl-b was below 0.1 µM.

`Cn1ccnc1-c1cc(F)ccc1-c1cc(C2CC2)nc(-n2cc(C3CC3)c3cc(CN4CCC[C@H](O)C4)[nH]c3c2=O)c1` [Example 58, 2-{[(S)-3-hydroxy-1-piperidyl]methyl}-4-cyclopropyl-6-{6-cyclopropyl-4-[4-fluoro-2-(1-methyl-2-imidazolyl)phenyl]-2-pyridyl}-1,6-dihydro-1,6-diaza-7-indenone]: the EC50 in the assay on Jurkat cells was below 0.1 µM. The molecule also showed an IC50 on Cbl-b below 0.1 µM.

The molecule `Cn1ccnc1-c1cc(F)ccc1-c1cc(C2CC2)nc(-n2cc(C3CC3)c3cc(CN[C@H]4CCOC4)[nH]c3c2=O)c1` [Example 59, 2-{[(S)-tetrahydro-3-furylamino]methyl}-4-cyclopropyl-6-{6-cyclopropyl-4-[4-fluoro-2-(1-methyl-2-imidazolyl)phenyl]-2-pyridyl}-1,6-dihydro-1,6-diaza-7-indenone] returned an EC50 in the assay with Jurkat cells below 0.1 µM. For the same molecule, the IC50 on Cbl-b is below 0.1 µM.

As to `Cn1ccnc1-c1cc(F)ccc1-c1cc(C2CC2)nc(-n2cc(C3CC3)c3cc(CN4C[C@H]5C[C@@H]4CO5)[nH]c3c2=O)c1` [Example 60, 2-({(1R,4R)-2-oxa-5-azabicyclo[2.2.1]hept-5-yl}methyl)-4-cyclopropyl-6-{6-cyclopropyl-4-[4-fluoro-2-(1-methyl-2-imidazolyl)phenyl]-2-pyridyl}-1,6-dihydro-1,6-diaza-7-indenone], the EC50 in the assay on Jurkat cells lay within 0.1 to 1 µM. In addition, the concentration for half-maximal inhibition (IC50) on Cbl-b was below 0.1 µM.

For `CO[C@H]1CCCN(Cc2cc3c(C4CC4)cn(-c4cc(-c5ccc(F)cc5-c5nccn5C)cc(C5CC5)n4)c(=O)c3[nH]2)C1` [Example 61, 2-{[(S)-3-methoxy-1-piperidyl]methyl}-4-cyclopropyl-6-{6-cyclopropyl-4-[4-fluoro-2-(1-methyl-2-imidazolyl)phenyl]-2-pyridyl}-1,6-dihydro-1,6-diaza-7-indenone], the EC50 in the assay with Jurkat cells lay in the range of 0.1 to 1 µM. The IC50 on Cbl-b was below 0.1 µM.

In turn, `Cn1ccnc1-c1cc(F)ccc1-c1cc(C2CC2)nc(-n2cc(C3CC3)c3cc(CNC(C)(C)C)[nH]c3c2=O)c1` [Example 62, 2-[(tert-butylamino)methyl]-4-cyclopropyl-6-{6-cyclopropyl-4-[4-fluoro-2-(1-methyl-2-imidazolyl)phenyl]-2-pyridyl}-1,6-dihydro-1,6-diaza-7-indenone] yielded an EC50 with Jurkat cells below 0.1 µM. Moreover, the IC50 on Cbl-b was below 0.1 µM.

`C[C@@H]1CN(Cc2cc3c(C4CC4)cn(-c4cc(-c5ccc(F)cc5-c5nccn5C)cc(C#N)n4)c(=O)c3[nH]2)CCO1` [Example 63, 6-(2-{[(R)-2-methyl-4-morpholinyl]methyl}-4-cyclopropyl-7-oxo-1,6-dihydro-1,6-diaza-6-indenyl)-4-[4-fluoro-2-(1-methyl-2-imidazolyl)phenyl]-2-pyridinecarbonitrile]: in the assay on Jurkat cells, the EC50 lay within 0.1 to 1 µM. The molecule further registered an IC50 on Cbl-b below 0.1 µM.

On to `CCn1ccnc1-c1cc(F)ccc1-c1cc(C2CC2)nc(-n2cc(C3CC3)c3cc(CN4CCO[C@H](C)C4)[nH]c3c2=O)c1` [Example 64, 2-{[(R)-2-methyl-4-morpholinyl]methyl}-4-cyclopropyl-6-{6-cyclopropyl-4-[2-(1-ethyl-2-imidazolyl)-4-fluorophenyl]-2-pyridyl}-1,6-dihydro-1,6-diaza-7-indenone], for which the EC50 in the assay with Jurkat cells was in the range of 0.1 to 1 µM. Further, the IC50 on Cbl-b was below 0.1 µM.

Take `C[C@@H]1CN(Cc2cc3c(C4CC4)cn(-c4cc(-c5c(F)cc(F)cc5-c5nccn5C)cc(C5CC5)n4)c(=O)c3[nH]2)CCO1` [Example 65, 2-{[(R)-2-methyl-4-morpholinyl]methyl}-4-cyclopropyl-6-{6-cyclopropyl-4-[4,6-difluoro-2-(1-methyl-2-imidazolyl)phenyl]-2-pyridyl}-1,6-dihydro-1,6-diaza-7-indenone]: the EC50 in the assay with Jurkat cells is below 0.1 µM. This molecule gave an IC50 at Cbl-b below 0.1 µM.

For the origin of these results see US20250011318A1 (ARCUS BIOSCIENCES, INC., priority 2023, published 2025).
